{"source": "patent US20240382556A1", "about": "“METHODS AND COMPOSITIONS FOR THE TREATMENT OF ALCOHOL DEPENDENCE” (Duke University, priority 2023, published 2024)", "key": {"animal models": {"tested_on": "animal models", "conditions": "unlike ketamine, Moskal et al. 2017; cited from earlier work"}, "Adult male C57/B16J mice": {"tested_on": "Adult male C57/B16J mice", "test": "Drinking in the Dark (DID) mouse model of binge drinking behavior", "format": "in vivo", "description": "To measure binge drinking behavior, experiments were conducted that used the Drinking in the Dark (DID) model as previously published (see, Thiele T E, Crabbe J C, Boehm S L, 2nd (2014): “Drinking in the Dark” (DID): a simple mouse model of binge-like alcohol intake. Curr Protoc Neurosci. 68: 9 49 41-49 49 12). Adult male C57/B16J mice on reverse light-dark cycle had water replaced with alcohol three hours into the dark cycle. On days 1-3 of each week (Mon-Wed), mice received 20% alcohol for 2 hrs and on day 4 (Thur) received for 4 hours.\nMice were treated with Rapastinel at dose of 30 mg/kg or saline via intraperitoneal injection (i.p.) 30 minutes prior to alcohol exposure on days 1-4 of cycle either during first cycle of DID or after first undergoing DID for 5 weeks prior to treatment on week 6 (see, FIG. 1)."}, "[1]": {"tested_on": "preclinical rodent models", "conditions": "previously shown; cited from earlier work"}}, "note": "Residues, ends and D or L forms follow the SMILES beside them.", "data": [{"compound": "C[C@@H](O)[C@H](N)C(=O)N1CCC[C@H]1C(=O)N1CCC[C@H]1C(=O)N[C@H](C(N)=O)[C@@H](C)O", "note": "[Rapastinel, L-threonyl-L-prolyl-L-prolyl-L-threoninamide] (H-TPPT-NH2)", "values": [{"measurement": "negative side effects during treatment", "setting": "animal models", "result": "has not been shown to produce any negative side effects"}, {"measurement": "alcohol consumption (daily and total) compared to saline control", "setting": "Adult male C57/B16J mice; alcohol naïve mice, 1 cycle of DID, daily i.p. injection of 30 mg/kg prior to presentation of alcohol", "result": "no effect"}, {"measurement": "Total average weekly alcohol consumption, week 6 with treatment in comparison to weeks 1-5", "setting": "Adult male C57/B16J mice; mice after 5 weeks of DID, 30 mg/kg i.p. 30 minutes prior to alcohol on days 1-4 of week 6, with and without removal of outliers (>90%)", "result": "reduced alcohol consumption"}, {"measurement": "cravings for opiates", "setting": "[1]", "result": "effective in reducing cravings for opiates"}]}]}
